Values quoted from earlier work, collected in patent US20040096453A1, “Methods and compositions to treat glycosaminoglycan-associated molecular interactions” (Neurochem (International) Limited, priority 1998, published 2004).

Test system: two streptococcal proteins (9,15 Kda)
Details: basement membranes of cardiac muscle and renal tissues; Bergey & Stenson

heparin
inhibition of binding of streptococcal proteins to basement membranes: completely inhibited
